# Details: buffer; pH 7.4; 200.0 µM
row,SMILES,solubility kinetic
1,Clc1ncc(CSc2ccccc2)s1,2.3 µg/mL
2,CC(C)CNC(=O)N1c2ccccc2Sc2ccccc21,7.1 µg/mL
3,CC(=O)Nc1ccc(S(=O)(=O)NCC(=O)OCC(=O)N2CC(C)OC(C)C2)cc1 (stereo not drawn),> 64.1 µg/mL
4,COC(=O)C1=C(N)OC2=C(C(=O)CCC2)C1c1cccnc1 (stereo not drawn),42.7 µg/mL
5,Cc1ccnc(SC2CC(=O)N(c3ccc(C(C)C)cc3)C2=O)n1 (stereo not drawn),> 51.2 µg/mL
6,O=C(CN1CCc2ccccc2C1)NCC(=O)Nc1ccc(F)cc1,17.1 µg/mL
7,Cc1cc(C)nc(SCC(=O)c2ccc(F)cc2)n1,38.5 µg/mL
8,COCCN(C(=S)Nc1c(C)cccc1C)C(C)c1ccco1 (stereo not drawn),47.1 µg/mL
9,CC(Oc1ccccc1)C(=O)N1CCN(c2ncccn2)CC1 (stereo not drawn),> 46.9 µg/mL
10,COc1cccc(/C=C/c2ccc3cccc(O)c3n2)c1,0.7 µg/mL
11,Cc1ccsc1C(=O)Nc1nccs1,> 33.6 µg/mL
12,O=C(Nc1ccccc1F)N1CCCC1c1cccnc1 (stereo not drawn),40.9 µg/mL
13,Cc1nc2ccccc2cc1C(=O)NCc1ccc(F)cc1,20.6 µg/mL
14,O=C1CCC(C(=O)OCC(=O)Nc2cc(Cl)ccc2F)=NN1,> 49.2 µg/mL
15,CC1CCCCC12NC(=O)N(CC(=O)OCC(=O)Nc1ccc(F)cc1[N+](=O)[O-])C2=O (stereo not drawn),7.5 µg/mL
16,Cc1nc2ccccc2c(=O)n1-c1ccc(Cl)cc1Cl,> 45.8 µg/mL
17,Cc1c(Cl)cccc1NC(=O)CCN1CCC(C(N)=O)CC1,> 48.6 µg/mL
18,CC(=O)c1ccccc1NCC(=O)Nc1ccc(C)cc1,11.2 µg/mL
19,CCOC(=O)CC(=O)NC(CC(=O)OC)c1ccc(Br)cc1 (stereo not drawn),45.7 µg/mL
20,O=C(Nc1cccc(Cl)c1)c1cc(F)cc2c1OCOC2,< 0.7 µg/mL
21,CC(C)CNC(=O)c1cccc2c1-c1ccccc1C2=O,2.5 µg/mL
22,COc1ccc(CNc2cc(C)nc3ccc(OC)cc23)cc1,37.8 µg/mL
23,Cc1oc2c(CN3CCCC(C)C3)c(O)ccc2c(=O)c1-c1ccccc1 (stereo not drawn),> 54.5 µg/mL
24,O=S(=O)(NC1CCCCC1N1CCC(O)CC1)c1ccccc1 (stereo not drawn),> 50.8 µg/mL
25,COc1ccc([C@@H]2OC2(C(N)=O)C(N)=O)cc1,32.2 µg/mL

row,SMILES,solubility kinetic
1,CC(C)NC(=O)CCCn1cc([N+](=O)[O-])cn1,> 36 µg/mL
2,CCSc1ccc(/C(N)=N/OC(=O)c2cccs2)cn1,0.3 µg/mL
3,COc1nc(NC2CCCCC2)nc(NC(C)(C)C)n1,20.7 µg/mL
4,Brc1ccc(C2NCCS2)cc1 (stereo not drawn),29.3 µg/mL
5,Cc1cccc(-c2noc(-c3c(C)noc3C)n2)c1,< 0.2 µg/mL
6,CC1CCCCC1NC(=O)COC(=O)c1cc(=O)c2ccccc2o1 (stereo not drawn),> 51.5 µg/mL
7,CC(=O)c1sc(NC(=O)COc2ccc(Cl)cc2Cl)nc1C,< 0.4 µg/mL
8,O=C(O)C1=NN(c2c(F)c(F)cc(F)c2F)C(=O)CC1,> 43.5 µg/mL
9,O=c1c2c([nH]c3ccccc13)CCC2,> 27.8 µg/mL
10,Cc1cc(C)c(S(=O)(=O)NCc2cccs2)cc1C,36.5 µg/mL
11,Cc1ccc(NC(=O)CCC(=O)c2ccc(Cl)s2)nc1,7.5 µg/mL
12,COc1cccc(NC(=O)c2c([N+](=O)[O-])cnn2C)c1,> 41.4 µg/mL
13,CN1C(c2ccccc2)=NO[C@]1(C)c1ccccc1,35.9 µg/mL
14,O=[N+]([O-])c1ccc(CP(=O)(c2ccccc2)c2ccccc2)cc1,8 µg/mL
15,CCC(C)[C@H](NC(=O)NCc1ccc(F)cc1)C(=O)O (stereo partly drawn),> 42.3 µg/mL
16,O=C(OCc1nc2ccccc2s1)c1ccc([N+](=O)[O-])o1,1.1 µg/mL
17,Cc1cc(C)c(C(=O)COC(=O)c2c(C)noc2C)cc1C,7.1 µg/mL
18,Cc1ccc(NC(=O)C(=O)Nc2ccc(C)cn2)nc1,1.8 µg/mL
19,COC(=O)Cc1nc(NC(=O)c2cccs2)sc1C,> 44.5 µg/mL
20,COc1cccc(NC(=O)CNCc2ccccc2)c1.Cl,> 46 µg/mL
21,COc1ccc(OC)c(S(=O)(=O)N2CCNCC2)c1,38.1 µg/mL
22,O=C(/C=C/c1ccccc1)NCc1ccc2c(c1)OCO2,2.5 µg/mL
23,COc1ccccc1CNC(=O)COC(=O)C1CC1,> 39.5 µg/mL
24,Cc1cc(C(=O)NCC2CCCO2)sc1C (stereo not drawn),> 35.9 µg/mL
25,CCOc1ccc(NC(=S)Nc2ccc(F)cc2)cc1,8.3 µg/mL

row,SMILES,solubility kinetic
1,N#CCCN(C(=O)CN1c2cccc3cccc(c23)S1(=O)=O)c1ccccc1,15 µg/mL
2,C[C@@H]1CC2(CCCC[N+]2(C)C)C[C@H]1C.[I-],> 48.5 µg/mL
3,Cc1ccc(N=C2NC(=O)C(CO)(CO)S2)cc1,27.1 µg/mL
4,Cc1ccc2nc(NC(=O)c3ccc(Br)o3)sc2c1,< 0.4 µg/mL
5,COc1ccc(OCC(=O)Nc2nc3cc4c(cc3s2)OCCO4)cc1,4.6 µg/mL
6,COc1ccc(C2SCC(=O)N2Cc2ccccc2)cc1 (stereo not drawn),44.6 µg/mL
7,Cc1ccc(C(=O)CCC(=O)Nc2ccccc2C)c(C)c1,1.3 µg/mL
8,COc1cc(SC)ccc1C(=O)Nc1cccc(C)n1,3.4 µg/mL
9,Cc1cc(C)nc(/N=C(\N)N2CCc3ccccc32)n1,37.1 µg/mL
10,CN1CCOCCOc2ccccc2OCCOCC1,> 42.2 µg/mL
11,Cc1ccc(S(=O)(=O)N2CCOCC2)cc1C(=O)N1CC(C)CC(C)C1 (stereo not drawn),35.9 µg/mL
12,Cc1ccc(OCC(=O)Nc2ccc3c(c2)C(=O)NC3=O)cc1,2.4 µg/mL
13,CC(=O)c1cccc(NC(=O)C2C3CCC(C3)C2C(=O)O)c1 (stereo not drawn),42.9 µg/mL
14,CC(Nc1c([N+](=O)[O-])c(=O)oc2ccccc12)c1ccccc1 (stereo not drawn),8.8 µg/mL
15,COc1ccccc1-n1c(SCC(=O)NCc2ccc3c(c2)OCO3)nc2cc([N+](=O)[O-])ccc21,3.1 µg/mL
16,Cc1c(-n2cccc2C=O)cccc1[N+](=O)[O-],> 34.5 µg/mL
17,CCc1ccccc1NC(=O)Nc1ccsc1C(=O)OC,16.2 µg/mL
18,CC(CCc1ccccc1)NC(=O)CNc1cccc([N+](=O)[O-])c1 (stereo not drawn),> 49.1 µg/mL
19,Cc1nn(C)c(Cl)c1/C=N/OC(=O)c1ccccc1,> 41.7 µg/mL
20,COC(CNc1ncnc2c1cnn2C)OC,> 35.6 µg/mL
21,S=C(NCCc1ccccn1)Nc1cc(Cl)cc(Cl)c1,19 µg/mL
22,CCN1CCN(C(=O)c2cc(=O)c3cc(C)ccc3o2)CC1,> 45.1 µg/mL
23,COc1ccc(NC(=S)Nc2ccc(N(C)C(C)=O)cc2)cc1,> 49.4 µg/mL
24,O=c1onc(-c2cccnc2)n1-c1ccccc1F,33 µg/mL
25,COc1ccccc1/C=C/CN1CCSCC1,> 37.4 µg/mL

row,SMILES,solubility kinetic
1,S=C(Nc1cccnc1)N1CCCCC1,> 33.2 µg/mL
2,CCN(CC(=O)Nc1c(F)cccc1F)C(=O)Cc1ccccc1,> 49.9 µg/mL
3,Cc1nc(C)c(-c2csc(Nc3ncccc3C)n2)s1,< 0.2 µg/mL
4,C=CCNc1cc(=O)n(Cc2ccccc2)c(=O)[nH]1,29.7 µg/mL
5,Cc1ccc(NC(=O)/C(Cl)=C\c2ccccc2)cc1,1.4 µg/mL
6,Cc1cc(C)c(Nc2ncccc2C(=O)O)c(C)c1,> 38.4 µg/mL
7,CCCOc1ccc(S(=O)(=O)N2CCN(C)CC2)c2ccccc12,39.2 µg/mL
8,Cc1c(OCC(=O)N(C)C)ccc2c(-c3ccccc3)cc(=O)oc12,13.6 µg/mL
9,COc1ccc(-c2nc(C#N)c(N3CCCCC3)o2)cc1,0.3 µg/mL
10,COc1ccc(-c2cn3ccc(C)cc3n2)cc1,33.1 µg/mL
11,COc1ccc(-c2noc(CCC(=O)NC3CCCC3)n2)cc1,27.2 µg/mL
12,Cc1cc(NC(=O)CSc2nncn2-c2ccccc2)no1,> 47.3 µg/mL
13,O=C(O)c1ccc(CSc2nc3ccccc3[nH]2)cc1,39.2 µg/mL
14,O=[N+]([O-])c1cc(S(=O)(=O)N2CCCC2)ccc1SCCO,> 49.9 µg/mL
15,COc1ccccc1N1CCNCC1.Cl,28.2 µg/mL
16,N#C/C(=C/c1ccncc1)c1nc2ccccc2c(=O)[nH]1,> 41.1 µg/mL
17,CC1CCN(C(=O)c2ccc(CNS(=O)(=O)c3ccc(C(C)(C)C)cc3)cc2)CC1,8.3 µg/mL
18,Cc1nc2nc(N)nc(OCc3ccccc3)c2nc1C,41.6 µg/mL
19,COc1ccc(CC(=O)N2CCN(c3ccccc3OC)CC2)cc1OC,51.5 µg/mL
20,CCOC(=O)C1CCN(S(=O)(=O)c2c[nH]c(=O)[nH]c2=O)CC1,> 49.7 µg/mL
21,COc1cccc2c(C)cc(N3CCCCCC3)nc12,33.2 µg/mL
22,Cc1cccc(NC(=O)c2cnccn2)c1,22.1 µg/mL
23,CC(NC(=O)c1ccccc1F)C1CC1 (stereo not drawn),> 31.1 µg/mL
24,O=C(O)c1ccc(NCc2nc3ccccc3n2Cc2ccccc2)cc1,> 53.6 µg/mL
25,O=C(COC(=O)COc1ccccc1)NCc1ccc2c(c1)OCO2,> 51.5 µg/mL

row,SMILES,solubility kinetic
1,CC(=O)N(C)c1ccc(NC(=O)Cc2cccs2)cc1,42.6 µg/mL
2,Cc1ccc(S(=O)(=O)/N=C(/Nc2ccccc2C)c2ccccc2)cc1,39.8 µg/mL
3,CCOn1c(=O)c(-c2ccccc2)[n+]([O-])c2ccccc21,> 42.3 µg/mL
4,COc1ccc(CCC(=O)NCCOc2ccc(C)cc2)cc1,24 µg/mL
5,Cc1cccc(Nc2ccncc2S(=O)(=O)NC(=O)NC(C)C)c1,> 52.3 µg/mL
6,O=C(NCCN1CCCCC1)Nc1cccc(C(F)(F)F)c1,> 47.3 µg/mL
7,CS(=O)(=O)c1ccc(Cl)c(NC(=O)Nc2ccccc2)c1,5.1 µg/mL
8,Cc1ccc(Nc2ncnc(N)n2)cc1,29.5 µg/mL
9,CCc1c(C)sc(NC(=O)c2cc(C(C)C)on2)c1C#N,3.4 µg/mL
10,COc1ccc(O)c(/C=N/N2CCOCC2)c1,> 35.4 µg/mL
11,COc1ccc(NC(=O)c2ccc(N3CCOCC3)nc2)cc1,6.3 µg/mL
12,COc1ccc(-c2nc3n(c(=O)c2C#N)CCS3)c(OC)c1,> 47.3 µg/mL
13,NC1=NC(=O)C(Cc2ccccc2)S1 (stereo not drawn),> 30.9 µg/mL
14,O=C1CCN(C(=O)CCCn2c(=O)oc3ccccc32)CC1,> 45.3 µg/mL
15,O=C(O)/C=C\C(=O)Nc1ccccc1N1CCN(c2ccccc2)CC1,52 µg/mL
16,O=Cc1cccn1-c1ccc2ccccc2c1,15 µg/mL
17,O=C(O)c1ccccc1C(=O)N1CCN(c2ncccn2)CC1,> 46.8 µg/mL
18,COc1ccccc1NC(=O)/C(C#N)=C/c1cccn1C,0.6 µg/mL
19,N#Cc1ccccc1NC(=O)COC(=O)c1cccs1,4 µg/mL
20,CC1(C)CCN2CCC(C)(C)c3c(O)ccc1c32.CS(=O)(=O)O,19.6 µg/mL
21,Cc1nc2c(cnn2-c2ccccc2)c(=O)[nH]1,> 33.9 µg/mL
22,COc1cccc(C(=O)OCC(=O)Nc2cc(C)on2)c1OC,> 48 µg/mL
23,Cc1cc([N+](=O)[O-])ccc1NC(=S)NC1CCCC1,21.9 µg/mL
